Assay results from patent US8889667B2 (Agios Pharmaceuticals, Inc, priority 2010, dated 2014).

Target: PKM2 (Homo sapiens, UniProt P14618)
Test: PKM2 Assay (activation, LDH-coupled, absorbance at 340 nm)
Assay type: biochemical
Method in brief: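 Read-out was the 340 nm NADH absorbance change at 25 °C in an LDH-coupled system (PEP 0.15 mM, NADH 180 μM, ADP 0.7 mM to initiate) in 50 mM Tris pH 7.5, 100 mM KCl, 5 mM MgCl2. PKM2 at 50 ng/well was first preincubated with compound for 30 min at 4 °C. Activation given as AC50.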

PKM2, sequence (P14618 whole entry): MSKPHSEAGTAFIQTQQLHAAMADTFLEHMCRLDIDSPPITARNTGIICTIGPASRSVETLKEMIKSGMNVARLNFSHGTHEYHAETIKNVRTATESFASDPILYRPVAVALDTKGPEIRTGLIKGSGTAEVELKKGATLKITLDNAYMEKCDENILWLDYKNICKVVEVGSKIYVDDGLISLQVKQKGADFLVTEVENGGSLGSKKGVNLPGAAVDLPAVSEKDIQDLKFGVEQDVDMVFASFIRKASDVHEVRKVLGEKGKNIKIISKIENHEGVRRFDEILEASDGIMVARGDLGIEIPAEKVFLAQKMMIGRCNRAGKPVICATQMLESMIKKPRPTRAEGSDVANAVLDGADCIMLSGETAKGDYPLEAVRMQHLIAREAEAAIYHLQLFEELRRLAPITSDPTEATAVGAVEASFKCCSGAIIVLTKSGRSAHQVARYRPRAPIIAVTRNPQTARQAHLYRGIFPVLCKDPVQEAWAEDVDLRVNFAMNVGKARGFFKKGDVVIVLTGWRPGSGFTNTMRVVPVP

AC50 (Table 4) [nM] | AC50 (Table 5) [nM] | SMILES
< 100 |  | O=C(c1ccc(NS(=O)(=O)c2cccc3cccnc23)cc1)N1C2CCC1CN(Cc1ccc(F)cc1)C2 [Compound 226, N-(4-(3-(4-fluorobenzyl)-3,8-diazabicyclo[3.2.1]octane-8-carbonyl)phenyl)quinoline-8-sulfonamide]
 | < 100 | COc1cc(NS(=O)(=O)c2cccc3cccnc23)ccc1C(=O)N1CCN(C(C)(C)c2ccccc2)CC1 [Compound 355, N-(3-methoxy-4-(4-(2-phenylpropan-2-yl)piperazine-1-carbonyl)phenyl)quinoline-8-sulfonamide]
100 to 500 |  | C[C@H]1CN(C(=O)O[C@@H]2CCOC2)CCN1C(=O)c1ccc(NS(=O)(=O)c2cccc3cccnc23)cc1 [Compound 166]
< 100 |  | C[C@@H]1CN(C[C@H]2CCCO2)CCN1C(=O)c1ccc(NS(=O)(=O)c2cccc3cccnc23)cc1 [Compound 212, N-(4-((R)-2-methyl-4-(((R)-tetrahydrofuran-2-yl)methyl)piperazine-1-carbonyl)phenyl)quinoline-8-sulfonamide]
